Earlier results in PMC7866862, “Screening, Optimization, and Bioavailability Research of Natural Deep Eutectic Solvent Extracts from Radix Pueraria” (Molecules, 2021).

Key:
[1] = parameters: method as in PMID 28165806
[2] = parameters: method as in PMID 30275390; settings: oral, NSSPE study

O=c1c(-c2ccc(O)cc2)coc2c([C@@H]3O[C@H](CO)[C@@H](O)[C@H](O)[C@H]3O)c(O)ccc12 [PUE, 8-β-D-glucopyranose-4′,7-dihydroxyisoflavone]
Oral bioavailability of PUE [1]: about 7%
Cmax of PUE [2]: 634.17 ng/mL
